Reference: PMC8765781, “A platform of assays for the discovery of anti-Zika small-molecules with activity in a 3D-bioprinted outer-blood-retina model” (PLoS ONE, 2022)
Like-named read-outs stand apart in the source and are kept apart here.

Legend:
[1] = system: ZIKV-mCherry (Cambodian strain FSS13025); assay: microbe, parasite or virus in culture; type: cell-based, Zika virus; conditions: for AC50: Zika virus, Vero
[2] = system: wild-type ZIKV (Ugandan MR766 strain) in Vero cells; assay: ZIKV cytopathic effect (CPE) inhibition qHTS assay, CellTiter-Glo readout; type: cell-based, Zika virus; conditions: for IC50: read-out: ZIKV-infection (CPE, ZIKV Antiviral Assays), IC50
[3] = system: caspase-3 activity induced by ZIKV in Vero cells; assay: cells; type: cell-based; conditions: Zika virus, read-out: Caspase 3 (ZIKV Antiviral Assays), IC50
[4] = in vitro; conditions: African green monkey
[5] = in vitro; conditions: human
[6] = system: ZIKV-RLuc (Cambodian strain FSS13025); assay: microbe, parasite or virus in culture; type: cell-based, Zika virus; conditions: for IC50 / AC50: Zika virus, Vero; for IC50: 48 h, read-out: Rluc-ZIKV (ZIKV Antiviral Assays), IC50
[7] = system: mCherry-ZIKV in human neuronal progenitor cells; assay: microbe, parasite or virus in culture; type: cell-based, Zika virus; conditions: for AC50: Zika virus, Neuronal progenitor cell
[8] = system: Vero cells
[9] = read-out: Log AC50 (M) (converted)
[10] = Zika virus, Vero, read-out: Log AC50 (M) (converted)

| SMILES | CC-v2 (curve class of the dose response curve) [1] | Efficacy (difference between neutral response and maximum compound response) [1] | Max Resp (difference between neutral response and response at highest compound concentration) [1] | Efficacy [2] | AC50 ([2]; Zika virus, Vero) | IC50 ([2]; Zika virus, Vero, 48 h) | IC50 ([3]; Vero, 48 h) | CC50 at 48 h ([4]; Vero cells) | CC50 [5] | IC50 [6] | AC50 [1] | AC50 [1, 9] | CC-v2 (curve class classification of the dose response curve) [2] | AC50 [2, 10] | CC50 [4] | also measured |
| --- | --- | --- | --- | --- | --- | --- | --- | --- | --- | --- | --- | --- | --- | --- | --- | --- |
| C=C(C)C1Cc2c(ccc3c2OCC(c2ccc(O)cc2O)C3)O1 (stereo not drawn) [NCGC00347653-02] | 5 | 33.59 | -97.958 | -16.545 | 7.18e-08 M | 0.07 µM | 16.2 µM | > 50 µM | > 30 µM | 0.02 µM | – | – | – | – | – | Curve class [2]: -3; AC50 ([2]; Zika virus, Vero, read-out: Log AC50 (converted)): 7.18e-08 M; Emax ([2]; Zika virus, Vero, read-out: Max response): -30.5% |
| COc1cccc(-n2nc(C(=O)O)cc2-c2ccc(C3CCCCC3)c(Cl)c2)c1 [NCGC00379183-01] | 5 | -42.035 | -100.305 | -41.012 | 2.91e-05 M | 29.1 µM | 26.3 µM | > 50 µM | 25.1 µM | 18.5 µM | 1.68e-05 M | 1.68e-05 M | -3 | 2.91e-05 M | – | CC-v2 (curve class) [7]: -3; Efficacy [7]: -112.723; Max Resp [7]: -95.876; AC50 [7]: 5.01e-05 M; AC50 [7, 9]: 5.01e-05 M |
| C[C@H]1CC[C@@]2(OC1)O[C@H]1CC3C4CC=C5C[C@H](O)C[C@@H](O[C@@H]6O[C@@H](C)[C@H](O)[C@@H](O)[C@H]6O[C@@H]6O[C@@H](C)[C@H](O)[C@@H](O)[C@H]6O)[C@]5(C)C4CC[C@]3(C)[C@H]1[C@@H]2C (stereo partly drawn) [NCGC00380128-01, Ophiopogonin B] | -1.4 | -59.028 | -100.132 | – | – | – | – | – | > 30 µM | 8.74 µM | – | – | – | – | – | AC50 ([2]; Zika virus, Vero, from Hill fit of the response curve, 50% of maximum activity response, 194 cherry-picked compounds, protocol name not given, read-out: AC50): 1.72e-05 M; AC50 ([2]; Zika virus, Vero, potency in log units (Molar) from Hill fit of the response curve, 194 cherry-picked compounds, protocol name not given, read-out: Log AC50 (converted)): 1.72e-05 M; IC50 ([2]; Zika virus, Vero cells, wild-type ZIKV MOI 1, 48 hr, unit inferred): 17.2 µM; CC-v2 (curve class classification of the dose response curve) ([2]; curve class v2 (Inglese et al. 2006)): -2.2; Efficacy ([2]; difference between neutral response and maximum compound response): -28.987; IC50 ([3]; ZIKV-infected Vero cells, 48 hr, unit inferred): > 48 µM; CC50 at 48 h [4]: > 50 µM |
| COc1ccc([C@H]2OC[C@H]3O[C@@H](O[C@H]4[C@@H]2NC[C@@H]4O)[C@H](O)[C@H]3O)cc1 [NCGC00380307-01] | -1.2 | -48.259 | -100.305 | -66.527 | 2.27e-05 M | 22.7 µM | 6.46 µM | > 50 µM | > 30 µM | 2.28 µM | 1.31e-07 M | 1.31e-07 M | -1.2 | 2.27e-05 M | – | – |
| C=C(CO)[C@@]12O[C@@H]1[C@@]1(C)C(=CC2=O)CC[C@@H](O)[C@@H]1C [NCGC00380396-01] | -1.2 | -43.557 | -98.628 | -65.778 | 8.2e-06 M | 8.2 µM | 0.01 µM | – | > 30 µM | 4.14 µM | 1.34e-06 M | 1.34e-06 M | -1.2 | 8.2e-06 M | > 50 µM | – |
| COc1cc2c(cc1OC)[C@@H]1[C@H](O)[C@@H](OC)C=C3CCN(C2)[C@H]31 [NCGC00384634-01] | -1.2 | -42.96 | -99.819 | -55.9 | 5.7e-06 M | 5.7 µM | 1.29 µM | – | > 30 µM | 4.55 µM | 8.26e-07 M | 8.26e-07 M | -1.2 | 5.7e-06 M | > 50 µM | – |
| COc1ccc(C(O)C(C)OC2OC(CO)C(O)C(O)C2O)cc1 (stereo not drawn) [NCGC00385130-01] | 4 | 0 | -28.221 | -87.993 | 2.02e-05 M | 20.2 µM | 0.01 µM | > 50 µM | > 30 µM | 0.001 µM | – | – | -3 | 2.02e-05 M | – | – |
| CC(=O)OC[C@]12[C@H](OC(C)=O)C(=O)[C@@H]3[C@@H](O)[C@@]14O[C@@]3(C)COC(=O)c1cccnc1[C@@H](C)[C@H](C)C(=O)O[C@@H]([C@H](OC(C)=O)[C@@H]2OC(C)=O)[C@]4(C)O [NCGC00385298-01] | -1.3 | -66.581 | -100.048 | -97.679 | 1.72e-05 M | 17.2 µM | 9.86 µM | – | > 30 µM | 9.81 µM | 3.53e-06 M | 3.53e-06 M | -2.1 | 1.72e-05 M | > 50 µM | AC50 [8]: 9.81 µM; Log AC50 (M) [8]: -5.0083 M; CC-v2 (curve class classification v2 of the dose response curve) [6]: -2.3; Efficacy (difference between neutral response and maximum compound response) [6]: -117.521; Max Resp (difference between neutral response and compound response for highest compound concentration) [6]: -98.025; AC50 [6]: 9.81e-06 M; AC50 [6, 9]: 9.81e-06 M |
| COc1cc2c(c(OC)c1CC=C(C)C)C[C@H](c1ccc(O)c(CC=C(C)C)c1O)CO2 [NCGC00385627-01] | 4 | -33.338 | -100.29 | -25.574 | 1.78e-05 M | 17.8 µM | 16.3 µM | > 50 µM | > 30 µM | 11.5 µM | – | – | – | 1.78e-05 M | – | – |
| CN[C@H](CC(C)C)C(=O)N[C@H]1C(=O)N[C@@H](CC(N)=O)C(=O)N[C@H]2C(=O)N[C@H]3C(=O)N[C@H](C(=O)N[C@H](C(=O)O)c4cc(O)cc(O)c4-c4cc3ccc4O)[C@H](O[C@H]3C[C@](C)(N)[C@@H](O)[C@H](C)O3)c3ccc(c(Cl)c3)Oc3cc2cc(c3O[C@@H]2O[C@H](CO)[C@@H](O)[C@H](O)[C@H]2O[C@H]2C[C@](C)(NCc3ccc(-c4ccc(Cl)cc4)cc3)[C@@H](O)[C@H](C)O2)Oc2ccc(cc2Cl)[C@H]1O [NCGC00485478-01] | 4 | 0 | -93.894 | -25.057 | 1.37e-05 M | 13.7 µM | > 48 µM | – | > 30 µM | 12.3 µM | – | – | – | 1.37e-05 M | > 50 µM | – |
